Values of other authors in patent US20210244941A1, “METHODS AND APPARATUS FOR A WEARABLE ELECTRONIC DIGITAL THERAPEUTIC DEVICE” (KINAPTIC, LLC, priority 2018, published 2021).
Where two headings read alike, the source gives them in different places.

Experiments:
[1] = tested on: sweat glands
[2] = rats, oral dosing
[3] = dogs, oral dosing
[4] = not given; remark: listed apart in the source
[5] = single- (up to 80 mg) and multiple-dose studies, healthy subjects and patients

physical sensation or discomfort ([1]; iontophoresis, electrical current at 0.2 milliamps into upper layer of skin) | absolute bioavailability [2] | absolute bioavailability [3] | increase in area under the concentration-time curve (AUC) (animal models) | absorption after oral dosing (animal models, oral dosing) | excretion (rats and dogs, renal and faecal/biliary routes) | absorption ([4]; single doses, humans) | oral bioavailability ([4]; single doses, humans) | accumulation [4, 5] | pharmacokinetics versus dose [4, 5] | Compound | sweat induction ([1]; gel containing carbachol on sensors, sedentary patient) | safety and tolerability ([4]; single doses, humans)
no physical sensation or discomfort |  |  |  |  |  |  |  |  |  | C[N+](C)(C)CCOC(N)=O [carbachol] | effective to induce sweat | 
 | 57-66% | 60-86% | dose proportional increase | absorbed rapidly | rapidly excreted | rapid absorption | high | no evidence of accumulation | dose-proportional | O=C(NC[C@H]1CN(c2ccc(N3CCOCC3=O)cc2)C(=O)O1)c1ccc(Cl)s1 [rivaroxaban] |  | safe and well tolerated
